Results: patent US20100040762A1 (Plantextrakt GmbH & Co. KG, priority 2006, published 2010)

Columns and labels:
[1] = system: Fischer-344 rats; assay: tele-stereo-EEG on unrestrained rats; type: in vivo, rat; conditions: oral administration; frontal cortex, hippocampus, striatum, reticular formation
Protocol: Supplementing in-vivo experiments on unrestrained rats by means of quantitative detection of the electric brain activity (tele-stereo-EEG). Observed were adult, unrestrained Fischer-344 rats with implanted 4 bipolar concentric brain electrodes. A continuous in-vivo analysis of the electric field potential (tele-stereo-EEG) of the frontal cortex, hippocampus, striatum, and reticular formation was performed analogous to Dimpfel et. al 1986. Additionally, the mobility of the rats was measured using a video tracking system by GJB […] GmbH, […], Germany. […] The “tele-stereo-EEG” model on unrestrained rats was chosen as the in-vivo model to validate results that were obtained following the rat-hippocampus in-vitro experiments, in particular the crossing of the blood-brain barrier for the described substances.

[2] = system: isolated rat brain hippocampal section preparation; assay: isolated rat brain hippocampal section preparation, extra-cellular field potentials after electrical stimulation; conditions: in vitro, single stimulus excitation and theta-burst stimulation
Protocol: The measured field potentials were recorded after a single stimulus excitation and theta-burst stimulation.

| Structure (SMILES) | electric field potentials (tele-stereo-EEG) [1] | influence on hippocampal electrical activity [2] |
| --- | --- | --- |
| CCNC(=O)CC[C@H](N)C(=O)O [theanine, 5-N-ethyl-L-glutamine] | principally contribute to the measured results | opposite effect |
| O=C(O[C@@H]1C[C@@](O)(C(=O)O)C[C@@H](O)[C@@H]1O)c1cc(O)c(O)c(O)c1 [theogallin, 5-galloyl quinic acid] | principally contribute to the measured results | stimulating substances |
| N[C@@H](CCC(=O)O)C(=O)O [Glutamic acid, glutamic acid] | – | stimulating substances |
| O=C(O)[C@]1(O)C[C@@H](O)[C@@H](O)[C@H](O)C1 [quinic acid] | principally contribute to the measured results | stimulating substances |
